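The concentration for 50% growth inhibition is given as GI50. TGI denotes the concentration required for complete inhibition of growth.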
Assays:
Assay in all cases: NCI-60 cell line screen, 384-well format
786-0 renal = tested on: 786-0 renal
A498 renal = tested on: A498 renal
A549 NSCLC = tested on: A549 NSCLC
ACHN renal = tested on: ACHN renal
BT-549 breast = tested on: BT-549 breast
CAKI-1 renal = tested on: CAKI-1 renal
CCRF-CEM leukemia = tested on: CCRF-CEM leukemia
COLO 205 colon = tested on: COLO 205 colon
DU-145 prostate = tested on: DU-145 prostate
EKVX NSCLC = tested on: EKVX NSCLC
HCC-2998 colon = tested on: HCC-2998 colon
HCT-116 colon = tested on: HCT-116 colon
HCT-15 colon = tested on: HCT-15 colon
HL-60(TB) leukemia = tested on: HL-60(TB) leukemia
HOP-62 NSCLC = tested on: HOP-62 NSCLC
HOP-92 NSCLC = tested on: HOP-92 NSCLC
HS 578T breast = tested on: HS 578T breast
HT29 colon = tested on: HT29 colon
IGROV1 ovarian = tested on: IGROV1 ovarian
K-562 leukemia = tested on: K-562 leukemia
KM12 colon = tested on: KM12 colon
LOX IMVI melanoma = tested on: LOX IMVI melanoma
M14 melanoma = tested on: M14 melanoma
MALME-3M melanoma = tested on: MALME-3M melanoma
MCF7 breast = tested on: MCF7 breast
MDA-MB-231 breast = tested on: MDA-MB-231 breast
MDA-MB-435 melanoma = tested on: MDA-MB-435 melanoma
MDA-MB-468 breast = tested on: MDA-MB-468 breast
MOLT-4 leukemia = tested on: MOLT-4 leukemia
NCI-H226 lung = tested on: NCI-H226 lung
NCI-H23 lung = tested on: NCI-H23 lung
NCI-H322M lung = tested on: NCI-H322M lung
NCI-H460 NSCLC = tested on: NCI-H460 NSCLC
NCI-H522 lung = tested on: NCI-H522 lung
NCI/ADR-RES ovarian = tested on: NCI/ADR-RES ovarian
OVCAR-3 ovarian = tested on: OVCAR-3 ovarian
OVCAR-4 ovarian = tested on: OVCAR-4 ovarian
OVCAR-5 ovarian = tested on: OVCAR-5 ovarian
OVCAR-8 ovarian = tested on: OVCAR-8 ovarian
PC-3 prostate = tested on: PC-3 prostate
RPMI-8226 leukemia = tested on: RPMI-8226 leukemia
RXF 393 renal = tested on: RXF 393 renal
SF-268 CNS = tested on: SF-268 CNS
SF-295 CNS = tested on: SF-295 CNS
SF-539 CNS = tested on: SF-539 CNS
SK-MEL-28 melanoma = tested on: SK-MEL-28 melanoma
SK-MEL-5 melanoma = tested on: SK-MEL-5 melanoma
SK-OV-3 ovarian = tested on: SK-OV-3 ovarian
SN12C renal = tested on: SN12C renal
SNB-19 CNS = tested on: SNB-19 CNS
SNB-75 CNS = tested on: SNB-75 CNS
SW-620 colon = tested on: SW-620 colon
TK-10 renal = tested on: TK-10 renal
U251 glioblastoma = tested on: U251 glioblastoma
UACC-257 melanoma = tested on: UACC-257 melanoma
UACC-62 melanoma = tested on: UACC-62 melanoma
UO-31 renal = tested on: UO-31 renal

**Q.** Which results are given for `COc1ccccc1N1CCN(C(=O)c2ccc(NS(=O)(=O)c3cccc4cccnc34)cc2)CC1`?
**A.** GI50 ([…]-0 renal): 40.8 µM; TGI (786-0 renal): > 100 µM; GI50 (A498 renal): 71.9 µM; TGI (A498 renal): > 100 µM; GI50 (A549 NSCLC): 18.5 µM; TGI (A549 NSCLC): > 100 µM; GI50 (ACHN renal): > 100 µM; TGI (ACHN renal): > 100 µM; GI50 (BT-549 breast): 33 µM; TGI (BT-549 breast): > 100 µM; GI50 (CAKI-1 renal): 74.5 µM; TGI (CAKI-1 renal): > 100 µM; GI50 (CCRF-CEM leukemia): 9.02 µM; TGI (CCRF-CEM leukemia): 23.6 µM; GI50 (COLO 205 colon): 31.5 µM; TGI (COLO 205 colon): > 100 µM; GI50 (DU-145 prostate): > 100 µM; TGI (DU-145 prostate): > 100 µM; GI50 (EKVX NSCLC): 37.9 µM; TGI (EKVX NSCLC): > 100 µM; GI50 (HCC-2998 colon): 12.7 µM; TGI (HCC-2998 colon): 56.1 µM; GI50 (HCT-116 colon): 32.8 µM; TGI (HCT-116 colon): > 100 µM; GI50 (HCT-15 colon): 28.9 µM; TGI (HCT-15 colon): > 100 µM; GI50 (HL-60(TB) leukemia): 18.2 µM; TGI (HL-60(TB) leukemia): 33.3 µM; GI50 (HOP-62 NSCLC): 32.1 µM; TGI (HOP-62 NSCLC): > 100 µM; GI50 (HOP-92 NSCLC): > 100 µM; TGI (HOP-92 NSCLC): > 100 µM; GI50 (HS 578T breast): 25.9 µM; TGI (HS 578T breast): > 100 µM; GI50 (HT29 colon): > 100 µM; TGI (HT29 colon): > 100 µM; GI50 (IGROV1 ovarian): > 100 µM; TGI (IGROV1 ovarian): > 100 µM; GI50 (K-562 leukemia): 10 µM; TGI (K-562 leukemia): 34.6 µM; GI50 (KM12 colon): > 100 µM; TGI (KM12 colon): > 100 µM; GI50 (LOX IMVI melanoma): > 100 µM; TGI (LOX IMVI melanoma): > 100 µM; GI50 (M14 melanoma): 26.9 µM; TGI (M14 melanoma): 84.9 µM; GI50 (MALME-3M melanoma): > 100 µM; TGI (MALME-3M melanoma): > 100 µM; GI50 (MCF7 breast): 24.5 µM; TGI (MCF7 breast): > 100 µM; GI50 (MDA-MB-231 breast): 63.5 µM; TGI (MDA-MB-231 breast): > 100 µM; GI50 (MDA-MB-435 melanoma): 20.4 µM; TGI (MDA-MB-435 melanoma): 42.9 µM; GI50 (MDA-MB-468 breast): 4.03 µM; TGI (MDA-MB-468 breast): 17.6 µM; GI50 (MOLT-4 leukemia): 4.05 µM; TGI (MOLT-4 leukemia): > 100 µM; GI50 (NCI-H226 lung): 8.48 µM; TGI (NCI-H226 lung): > 100 µM; GI50 (NCI-H23 lung): > 100 µM; TGI (NCI-H23 lung): > 100 µM; GI50 (NCI-H322M lung): 53.4 µM; TGI (NCI-H322M lung): > 100 µM; GI50 (NCI-H460 NSCLC): 14.1 µM; TGI (NCI-H460 NSCLC): 31 µM; GI50 (NCI-H522 lung): 16.8 µM; TGI (NCI-H522 lung): 34.2 µM; GI50 (NCI/ADR-RES ovarian): > 100 µM; TGI (NCI/ADR-RES ovarian): > 100 µM; GI50 (OVCAR-3 ovarian): 24.9 µM; TGI (OVCAR-3 ovarian): 81.4 µM; GI50 (OVCAR-4 ovarian): > 100 µM; TGI (OVCAR-4 ovarian): > 100 µM; GI50 (OVCAR-5 ovarian): > 100 µM; TGI (OVCAR-5 ovarian): > 100 µM; GI50 (OVCAR-8 ovarian): 28.1 µM; TGI (OVCAR-8 ovarian): > 100 µM; GI50 (PC-3 prostate): 56 µM; TGI (PC-3 prostate): > 100 µM; GI50 (RPMI-8226 leukemia): 10.2 µM; TGI (RPMI-8226 leukemia): 23.6 µM; GI50 (RXF 393 renal): 18.2 µM; TGI (RXF 393 renal): 80.9 µM; GI50 (SF-268 CNS): 13.7 µM; TGI (SF-268 CNS): 47.4 µM; GI50 (SF-295 CNS): > 100 µM; TGI (SF-295 CNS): > 100 µM; GI50 (SF-539 CNS): 32 µM; TGI (SF-539 CNS): > 100 µM; GI50 (SK-MEL-28 melanoma): > 100 µM; TGI (SK-MEL-28 melanoma): > 100 µM; GI50 (SK-MEL-5 melanoma): 7.09 µM; TGI (SK-MEL-5 melanoma): > 100 µM; GI50 (SK-OV-3 ovarian): 38.9 µM; TGI (SK-OV-3 ovarian): > 100 µM; GI50 (SN12C renal): 61.3 µM; TGI (SN12C renal): > 100 µM; GI50 (SNB-19 CNS): 52.1 µM; TGI (SNB-19 CNS): > 100 µM; GI50 (SNB-75 CNS): > 100 µM; TGI (SNB-75 CNS): > 100 µM; GI50 (SW-620 colon): 44.8 µM; TGI (SW-620 colon): > 100 µM; GI50 (TK-10 renal): > 100 µM; TGI (TK-10 renal): > 100 µM; GI50 (U251 glioblastoma): 40.7 µM; TGI (U251 glioblastoma): > 100 µM; GI50 (UACC-257 melanoma): > 100 µM; TGI (UACC-257 melanoma): > 100 µM; GI50 (UACC-62 melanoma): 58.6 µM; TGI (UACC-62 melanoma): > 100 µM; GI50 (UO-31 renal): > 100 µM; TGI (UO-31 renal): > 100 µM
